Assay [1] has as its target T1, Wee1 protein (Homo sapiens, UniProt P30291).
T1 construct: purchased Thermo Fisher PR7373A
The assay is described as follows: Binding of compound to Wee1 protein and Tracer 178 by TR-FRET (Wee1 kinase inhibitory activity). To be noted: 15 nM WEE1, 50 nM Tracer 178, read-out: IC50 (inhibitory activity against Wee1 kinase). The method, then: First, solutions of the compounds in different concentration gradients were prepared. The compounds were dissolved in DMSO and the compounds were diluted 4 folds with a total of 10 dose points and 2 parallel replicates for each concentration.
The IC50 for inhibition of enzyme activity by the compounds was then calculated using GraphPad Prism 6 and fitted with a log (inhibitor) vs. response-Variable slope mode. The fitting equation was: Y=Bottom+(Top−Bottom)/(1+10^((Log IC50−X)*HillSlope)), wherein Y represents the percentage of residual enzyme activity known and X represents the known concentration of compound after the logarithm.
(In general: Time-resolved FRET reads energy transfer from a long-lived donor to a nearby acceptor.)

In assay [2] the test system is MIA PaCa2 cells. Briefly: Anti-proliferative effect on MIA PaCa2 cells by Cell Titer-Glo. The format is cell-based. The note with it: Homo sapiens, MIA PaCa-2, 72 h, 3 days, read-out: MIA PaCa 2 (IC50, inhibition of proliferation in vitro). The method, then:
(§1) Test Example 2: Evaluation of Cell Proliferation Inhibitory Activity
2. Evaluation of the Anti-Proliferative Effect of Compounds on MIA PaCa2 Cells by the Cell Titer-Glo Method
(§2) Compound solutions of different concentration gradients were prepared. […] The cell growth group without compound was used as a positive control (maximum signal control) and the medium was used as a negative control (minimum signal control), while ensuring that the final level of DMSO in each reaction well was 0.2%. After removing the medium from the 384-well plate, 25 ul of the configured compound at different concentrations was transferred into the well plate and the compound and cells were incubated in the cell incubator at 37° C. with 5% CO2 for 3 days.
The 384-well plates were removed from the cell incubator and allowed to equilibrate for 1 h to room temperature. 25 ul of Cell Titer-Glo assay was added to each well, lysed on a shaker for 2 min and then read out (Luminescence) using a BMG PHERAStar after 10 min incubation. Calculate the inhibition rate from the luminescence signal: first calculate the average of the positive control (maximum signal control) and the negative control (minimum signal control).
was used to calculate the rate of inhibition of the cells by different concentrations of the compounds. The IC50 of the compound on cell activity inhibition was calculated by fitting a log(inhibitor) vs. response-Variable slope model to GraphPad Prism 6. The fitted equation was: Y=Bottom+(Top-Bottom)/(1+10^((Log IC50−X)*HillSlope)), wherein Y represents the rate of inhibition and X represents the concentration of the known compound after Log.
(§3) The results of the in vitro anti-cell proliferation assays of H1299 and MIA Paca-2 for the example compounds according to the method described above are shown in Table 2, wherein the IC50 of each compound was determined and classified according to the description as follows: […]
Background: In ATP-based viability assays light output follows the ATP content of the culture.

In assay [3] the test system is H1299 cells. Briefly: Anti-proliferative effect on H1299 cells by Cell Titer-Glo. The note with it: Homo sapiens, NCI-H1299, 72 h, 3 days, read-out: H1299 (IC50, inhibition of proliferation in vitro). The format is cell-based. The method, then:
as §1
1. Evaluation of the Anti-Proliferative Effect of Compounds on H1299 Cells by the Cell Titer-Glo Method
as §2
The 384-well plates were removed from the cell incubator and allowed to equilibrate for 1h to room temperature. 25 ul of Cell Titer-Glo assay was added to each well, lysed on a shaker for 2 min and then read out (Luminescence) using a BMG PHERAStar after 10 min incubation. Calculate the inhibition rate from the luminescence signal: first calculate the average of the positive control (maximum signal control) and the negative control (minimum signal control).
was used to calculate the rate of inhibition of the cells by different concentrations of the compounds. The IC50 of the compound on cell activity inhibition was calculated by fitting a log(inhibitor) vs. response-Variable slope model to GraphPad Prism 6. The fitted equation was: Y=Bottom+(Top−Bottom)/(1+10^((Log IC50−X)*HillSlope)), where Y represents the rate of inhibition and X represents the concentration of the known compound after Log.
as §3

T1 sequence (P30291 whole entry): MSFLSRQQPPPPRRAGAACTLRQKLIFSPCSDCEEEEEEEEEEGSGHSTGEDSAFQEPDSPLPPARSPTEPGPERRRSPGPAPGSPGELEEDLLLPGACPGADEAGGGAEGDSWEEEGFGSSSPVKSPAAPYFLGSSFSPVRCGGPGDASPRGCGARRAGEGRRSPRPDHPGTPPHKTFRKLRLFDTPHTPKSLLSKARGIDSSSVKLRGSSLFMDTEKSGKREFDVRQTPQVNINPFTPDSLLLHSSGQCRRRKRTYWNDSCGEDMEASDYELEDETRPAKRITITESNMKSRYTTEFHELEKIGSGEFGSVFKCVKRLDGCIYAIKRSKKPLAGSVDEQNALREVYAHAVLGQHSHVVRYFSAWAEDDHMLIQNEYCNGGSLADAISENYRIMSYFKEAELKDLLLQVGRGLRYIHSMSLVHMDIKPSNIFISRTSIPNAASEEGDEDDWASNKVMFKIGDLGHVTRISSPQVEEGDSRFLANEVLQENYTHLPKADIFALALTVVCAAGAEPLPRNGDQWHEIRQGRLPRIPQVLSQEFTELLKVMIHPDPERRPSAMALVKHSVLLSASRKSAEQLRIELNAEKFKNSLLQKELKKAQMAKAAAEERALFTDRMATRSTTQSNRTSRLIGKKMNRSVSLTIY

For `C=CCn1c(=O)c2cnc(Nc3cnn(-c4ccc(N(C)C)cc4)c3)nc2n1-c1cccc(C(C)(C)O)n1` [Compound 45], the IC50 was 10 to 100 nM in assay [1], 5000 to 10000 nM in assay [2] and above 10000 nM in assay [3].
The like results for `C=CCn1c(=O)c2cnc(Nc3ccc(N4C[C@@H]5C[C@H]4CN5CCO)cc3)nc2n1-c1cccc(C(C)(C)O)n1` [Compound 38] were, in that order, 10 to 100 nM, 100 to 1000 nM and 2000 to 5000 nM.
In the case of `C=CCn1c(=O)c2cnc(Nc3ccc(N4[C@@H]5C[C@H]4CN(C)C5)cc3)nc2n1-c1cccc(C(C)(C)O)n1` [Compound 43], the IC50 was 10 to 100 nM in assay [1], 2000 to 5000 nM in assay [2] and 2000 to 5000 nM in assay [3].
On to `C=CCn1c(=O)c2cnc(Nc3ccc(N4C[C@@H]5C[C@H]4CN5CCF)cc3)nc2n1-c1cccc(C(C)(C)O)n1` [Compound 44], for which the results for the IC50 in assay [1], in assay [2] and in assay [3] were 5 to 10 nM, 100 to 1000 nM and 100 to 1000 nM, respectively.
On to `C=CCn1c(=O)c2cnc(Nc3ccc(N4CC5CC(C4)N5C(C)=O)cc3)nc2n1-c1cccc(C(C)(C)O)n1` [Compound 68], for which the IC50 in assay [1] is 10 to 100 nM; in assay [2], 100 to 1000 nM; in assay [3], 1000 to 2000 nM.
In the case of `C=CCN1C2CC1CN(c1ccc(Nc3ncc4c(=O)n(CC=C)n(-c5cccc(C(C)(C)O)n5)c4n3)cc1)C2` [Compound 64], the IC50 in assay [1] is 10 to 100 nM; in assay [2], 100 to 1000 nM; in assay [3], 100 to 1000 nM.
For the molecule `C=CCn1c(=O)c2cnc(Nc3ccc(N4CCOc5ccccc54)cc3)nc2n1-c1cccc(C(C)(C)O)n1` [Compound 31], the results for the IC50 in assay [1], in assay [2] and in assay [3] were 10 to 100 nM, 5000 to 10000 nM and 5000 to 10000 nM, respectively.
Regarding `C=CCn1c(=O)c2cnc(Nc3ccc(-c4cc(=O)[nH]c5c4N4CCC5CC4)cc3)nc2n1-c1cccc(C(C)(C)O)n1` [Compound 16], the figures for the IC50 in assay [1], in assay [2] and in assay [3] were 10 to 100 nM, above 10000 nM and above 10000 nM, respectively.
Take `C=CCn1c(=O)c2cnc(Nc3ccc(N4CCN(C)CC4)cc3)nc2n1-c1ccc2c(n1)N(CC)C(=O)C2(C)C` [Compound 71]: the IC50 fell in the range of 10 to 100 nM in assay [1] and 2000 to 5000 nM in assay [3].
As to `C=CCn1c(=O)c2cnc(Nc3ccc(N4CC5CC(C4)N5C(=O)OC)cc3)nc2n1-c1cccc(C(C)(C)O)n1` [Compound 69], the IC50 in assay [1] was in the range of 10 to 100 nM; in assay [3], 100 to 1000 nM.
Take `C=CCn1c(=O)c2cnc(Nc3ccc(N4CCN(C)CC4)cc3)nc2n1-c1ccc2c(F)cn(CC)c2n1` [Compound 73]: the values for the IC50 in assay [1] and in assay [3] were 10 to 100 nM and 1000 to 2000 nM, respectively.
On to `C=CCn1c(=O)c2cnc(Nc3ccc(N4C[C@@H]5C[C@H]4CN5C)cc3)nc2n1-c1cccc(N=S(C)(C)=O)n1` [Compound 5], for which the IC50 in assay [1] was below 5 nM; in assay [3], 100 to 1000 nM.
The like results for `C=CCn1c(=O)c2cnc(Nc3ccc(N4CCN(C)CC4)cc3)nc2n1-c1cccc(C2(S(C)(=O)=O)CC2)n1` [Compound 1] were, in that order, 5 to 10 nM and 2000 to 5000 nM.
For `C=CCn1c(=O)c2cnc(Nc3ccc(N4CCN(C)CC4)cc3)nc2n1-c1ccc2nc(C)n(CC)c2n1` [Compound 75] the same measures were 10 to 100 nM and 1000 to 2000 nM.
Take `C=CCn1c(=O)c2cnc(Nc3ccc(N4CCN(C)CC4)cc3)nc2n1-c1ccc2c(C(C)=O)cn(CC)c2n1` [Compound 70]: the IC50 in assay [1] fell in the range of 5 to 10 nM; in assay [3], 100 to 1000 nM.
For `C=CCn1c(=O)c2cnc(Nc3ccc(OC4CN5CCC4CC5)cc3)nc2n1-c1cccc(N=S(C)(C)=O)n1` (centres unmarked) [Compound 7] the same measures were below 5 nM and 100 to 1000 nM.
As for `C=CCn1c(=O)c2cnc(Nc3ccc(N4CCN(C)CC4)cc3)nc2n1-c1cc2ccccc2s1` [Compound 72], the results for the IC50 in assay [1] and in assay [3] were 10 to 100 nM and 5000 to 10000 nM, respectively.
The like results for `C=CCn1c(=O)c2cnc(Nc3cc(F)c(N4CC5CC(C4)N5C)c(F)c3)nc2n1-c1cccc(C(C)(C)O)n1` [Compound 79] were, in that order, 10 to 100 nM and above 10000 nM.

For the origin of these results see US20250034151A1, “WEE1 INHIBITOR, PREPARATION THEREFOR, AND USE THEREOF” (JIANGSU TASLY DIYI PHARMACEUTICAL CO., LTD., priority 2022, published 2025).
